According to article PMC3929365, “Benzimidazoisoquinolines: A New Class of Rapidly Metabolized Aryl Hydrocarbon Receptor (AhR) Ligands that Induce AhR-Dependent Tregs and Prevent Murine Graft-Versus-Host Disease” (PLoS ONE, 2014):

Experiments:
[1] = system: CD4+ T cells; assay: Donor CD4+ T cell proliferation in vivo (CFSE dilution) during the GVH response; design: species or system B6D2F1 host mice; conditions: 10 mg/kg/d i.p. for two days
Experimental: A. Splenocytes from C57Bl/6 mice were labeled with CFSE and activated in vitro with anti-CD3 and anti-CD28 in the presence of 100 nM 10-Cl-BBQ or DMSO for 72 h. B. C57Bl/6 donor T cells were labeled with CFSE and injected into B6D2F1 host mice to initiate the GVH response. Host mice (n = 5 per group) were treated with vehicle or 10-Cl-BBQ i.p. (10 mg/kg/d) for two days. Donor cells were identified by gating on CD4^+CFSE^+ cells. […] (TIF) Click here for additional data file.

[2] = Serum liver chemistry profile; format: in vivo, B6D2F1 mice; conditions: 10 mg/kg/day i.p., 2 days
Experimental: Supplementary file pone.0088726.s004.docx: Table S1 Serum liver chemistry profile. B6D2F1 mice were give 10 mg/kg/day of 10-Cl-BBQ or vehicle i.p. After 2 days serum was collected and analyzed. n = 5 mice per treatment, average values are shown(± standard deviation). ALT – Alanine transaminase, SGPT – serum glutamic pyruvate transaminase. (DOCX) Click here for additional data file.
Table S1. Serum liver chemistry profile. B6D2F1 mice were give 10 mg/kg/day of 10-Cl-BBQ or vehicle i.p. After 2 days serum was collected and analyzed. n = 5 mice per treatment, average values are shown(± standard deviation). ALT – Alanine transaminase, SGPT – serum glutamic pyruvate transaminase.

[3] = system: Foxp3; assay: Lymph node gene expression (RT-qPCR) during the GVH response; format: in vivo, B6D2F1 host mice; conditions: any dose (0.4, 2 or 10 mg/kg/day), lymph nodes, 48 h
Experimental: RNA was isolated from lymph nodes of B6D2F1 host mice with the RNeasy Mini Kit (Qiagen). cDNA was prepared from at least 1 µg RNA in a 2-step reaction using the ReactionReady First Strand cDNA synthesis kit (SA Biosciences) according to the manufacturer’s instructions and Superscript III reverse-transcriptase (Life Technologies). The qPCR reaction was carried out on an ABI PRISM 7500 Real-Time PCR system (Applied Biosystems). The reaction mixture consisted of SYBR Green/ROX qPCR Master Mix (SA Bioscience), 2–10 ng-RNA equivalent cDNA and 1 µl of the gene-specific commercial primer sets (SA Biosciences). The following conditions were used: 10 min at 95°C (1 cycle), 15 s at 95°C and 1 min at 60°C (40 cycles). […] The raw data was normalized to Actb and the fold-change was calculated by the ΔΔCt method using vehicle-treated sample values as the control.
Figure 3 10-Cl-BBQ induces an AhR-dependent Treg phenotype 48 h after initiating the GVH response. […] E) In the same mice as in D, lymph nodes were harvested and analyzed for expression of genes that were previously shown to increase under the same GVH conditions with TCDD treatment (13). […] Changes in gene expression were calculated relative to the β-actin gene, and the fold-induction was calculated by the ΔΔCt method using the vehicle-treated samples as a control. * = p<0.05 relative to vehicle treatment. […]

[4] = Pharmacokinetics: serum concentration after single i.p. injection; format: in vivo, C57Bl/6 mice; conditions: 10 mg/kg i.p., mouse
Experimental: C57Bl/6 mice were injected i.p. with 10 mg/kg 10-Cl-BBQ. At defined time points, blood was collected by cardiac puncture. Serum was harvested and protein was precipitated by adding a 4-fold volume of ice-cold acetonitrile. The supernatant was collected and analyzed on a QTRAP 4000 LC/MS/MS instrument using an Agilent C8 UPLC column. The serum concentration of 10-Cl-BBQ was determined using a standard curve prepared using dilutions of 10,000; 5,000; 1,000; 500; 100; 50 and 10 pg/ml of 10-Cl-BBQ. The mean values (n = 2–3 mice per time point) are shown with SEM. Pharmacokinetic parameters were calculated using PKsolver software.
Figure 2 Pharmacokinetics of 10-Cl-BBQ. C57BL/6 mice were given 10 mg/kg 10-Cl-BBQ by i.p. injection. A) Blood was collected at the indicated times by cardiac puncture. The serum was processed to remove protein and the samples were analyzed by QTRAP 4000 LC/MS/MS. The serum concentration of 10-Cl-BBQ was determined from a standard curve based on known concentrations of 10-Cl-BBQ. B) Liver tissue was harvested and processed for mRNA analysis. CYP1A1 gene expression was determined relative to the β-actin gene, and the fold-induction was determined by the ΔΔCt method using the vehicle-treated samples as a control. The mean values are shown with SEM for 2–3 mice per time point.

Compound: O=c1c2cccc3cccc(c32)c2nc3ccc(Cl)cc3n12 [10-Cl-BBQ, 10-chloro-7H-benzimidazo[2,1-a]benzo[de]isoquinolin-7-one]
- proliferation of activated T cells in vivo [1]: did not inhibit proliferation
- acute hepatic toxicity in mice [2]: nor did it induce acute hepatic toxicity
- ALT (SGPT) ([2]; serum, mean (± SD), n = 5): 34.4 (± 10.4) U/l
- Albumin ([2]; serum, mean (± SD), n = 5): 3.3 (± 0.1) g/dl
- Alkaline Phosphatase ([2]; serum, mean (± SD), n = 5): 51.4 (± 8.3) U/l
- Bilirubin ([2]; serum, mean (± SD), n = 5): 0.12 (± 0) mg/dl
- Blood Urea Nitrogen ([2]; serum, mean (± SD), n = 5): 10.2 (± 1.5) mg/dl
- Cholesterol ([2]; serum, mean (± SD), n = 5): 119.2 (± 10.4) mg/dl
- Glucose ([2]; serum, mean (± SD), n = 5): 201.2 (± 10.4) mg/dl
- Gamma Glutamyl Transferase ([2]; serum, n = 5): 0 U/l
- expression of Foxp3 [3]: did not induce expression of Foxp3
- absorption rate constant (ka) [4]: 1.2 h⁻¹
- time required to reach Cmax (Tmax) [4]: 1.64 h
- total clearance/bioavailability (CL/F) [4]: 32.5 mL/min
- half-life ([4]; C57Bl/6, serum, ip, one compartment model): ~2 h
- AUC(0-inf) ([4]; C57Bl/6, serum, ip, read-out: area under the concentration-time curve (AUC0-∞)): 102 ng·h/mL
- Cmax ([4]; C57Bl/6, serum, ip, read-out: maximum concentration reached in serum (Cmax)): 21.5 ng/mL
- Vd/F ([4]; C57Bl/6, serum, ip, read-out: volume of distribution/bioavailability (V/F)): 5.66 L
